Data taken from ChEMBL document CHEMBL1201862, “PubChem BioAssay data set” (2004).
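Each compound was tested at five concentrations against cells in 96-well plates for 48 hours. Abbreviation: GI50, concentration required for 50% inhibition of growth.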 Activity calls are given as the source filed them. No stated cut-off is given here; in the data, active = GI50 up to about 1.1 µM and inactive = higher.

Assays:
Assay in all cases: NCI tumour cell line growth inhibition, 48 h
[1] = test system: SK-MEL-5
[2] = test system: OVCAR-8
[3] = test system: UACC-62
[4] = test system: A498
[5] = test system: SW-620
[6] = test system: NCI-H460
[7] = test system: UO-31
[8] = test system: SK-MEL-28
[9] = test system: KM12
[10] = test system: HT-29
[11] = test system: NCI-H23
[12] = test system: K562
[13] = test system: OVCAR-5
[14] = test system: COLO 205
[15] = test system: SF-539
[16] = test system: RXF 393
[17] = test system: NCI/ADR-RES
[18] = test system: MDA-MB-231

Measured: GI50

Cc1ccnc(NS(=O)(=O)c2ccc(NC3=CC(=O)C(=O)c4ccccc43)cc2)n1
inactive: [1] > 100 µM | [2] > 100 µM | [3] > 100 µM | [4] > 100 µM | [5] > 100 µM | [6] > 100 µM | [7] > 100 µM | [8] > 100 µM | [9] > 100 µM | [10] > 100 µM | [11] > 100 µM | [12] > 100 µM | [13] > 100 µM | [14] > 100 µM | [15] > 100 µM | [16] > 100 µM

CC(C)CCC[C@@H](C)C1CCC2[C@@H]3CC=C4C[C@@H](C(=O)NCCN(C)C)CC[C@]4(C)C3CC[C@@]21C (some centres undefined)
inactive: [1] > 10 µM | [2] 33.1 µM | [3] 42.4 µM | [4] 32.5 µM | [5] 30 µM | [6] 32.9 µM | [7] 23.1 µM | [8] 35.2 µM | [9] 14.9 µM | [10] 34.2 µM | [11] 18.3 µM | [12] 33 µM | [13] > 100 µM | [14] 19.5 µM | [15] 17.1 µM | [16] > 100 µM

CCCC(OCC)(OCC)OCC
inactive: [1] > 100 µM | [2] > 100 µM | [3] > 100 µM | [4] > 100 µM | [6] > 100 µM | [7] > 100 µM | [8] > 100 µM | [9] > 100 µM | [10] > 100 µM | [11] > 100 µM | [12] > 100 µM | [13] > 100 µM | [14] > 100 µM | [15] > 100 µM | [16] > 100 µM

COC(=O)C(CC(=O)Nc1ccc(C)cc1)C(=O)C(=O)Nc1ccccc1C(C)C (centres undefined)
inactive: [1] > 100 µM | [2] > 100 µM | [3] > 100 µM | [4] > 100 µM | [5] 22.2 µM | [6] > 100 µM | [7] > 100 µM | [8] > 100 µM | [9] > 100 µM | [10] > 100 µM | [11] > 100 µM | [12] > 100 µM | [13] > 100 µM | [14] 89.7 µM | [15] > 100 µM | [16] > 100 µM

NC(=S)NNC(=O)/C(=C/c1ccc(/C=C(\NC(=O)c2ccccc2)C(=O)NNC(N)=S)cc1)NC(=O)c1ccccc1
inactive: [1] 66.2 µM | [2] 64 µM | [3] > 100 µM | [4] > 100 µM | [5] > 81.8 µM | [6] > 100 µM | [7] > 100 µM | [8] > 100 µM | [9] > 100 µM | [10] > 100 µM | [11] > 100 µM | [12] 19.1 µM | [13] > 100 µM | [14] > 100 µM | [15] > 100 µM | [16] > 75 µM

CC1=Nc2c(ccc3c2C(=O)c2ccccc2C3=O)NC(c2cccc3c2CCC3)C1 (centres undefined)
inactive: [1] > 100 µM | [2] > 100 µM | [3] > 100 µM | [4] > 67.3 µM | [5] > 100 µM | [6] 47.8 µM | [7] 4.72 µM | [8] > 100 µM | [9] > 31.9 µM | [10] > 100 µM | [11] > 100 µM | [12] 21.4 µM | [13] > 100 µM | [14] > 100 µM | [15] > 100 µM | [16] > 100 µM

CCC(C)C(N)C(=O)NC(CC(N)=O)C(=O)NC(CC(C)C)C(=O)NC(CCCCN)C(=O)NC(C)C(=O)NC(CC(C)C)C(=O)NC(C)C(=O)NC(C)C(=O)NC(CC(C)C)C(=O)NC(C)C(=O)NC(CCCCN)C(=O)NC(CCCCN)C(=O)NC(C(=O)NC(CC(C)C)C(N)=O)C(C)CC (centres undefined)
inactive: [1] 6.53 µM | [2] 17.5 µM | [3] 6.64 µM | [4] 17.9 µM | [5] 20.4 µM | [6] 9.82 µM | [7] 18.1 µM | [8] 8.59 µM | [9] 14.5 µM | [10] 19.5 µM | [11] 14.7 µM | [12] 14.7 µM | [13] 14.6 µM | [14] 16.1 µM | [15] 6.08 µM | [16] 8.61 µM

CC(=O)Oc1cc(C)c2c(c1OC(C)=O)CC1(O2)[C@@H](C)CCC2[C@@]3(C)CC[C@H](OC(C)=O)C(C)(C)C3CC[C@]21C (some centres undefined)
inactive: [1] 3.1 µM | [2] 3.01 µM | [3] 2.46 µM | [4] 7.46 µM | [5] 2.82 µM | [6] 3.45 µM | [7] 1.99 µM | [8] 4.41 µM | [9] 5.13 µM | [10] 5.43 µM | [11] 2.19 µM | [13] 5.46 µM | [14] 1.63 µM | [15] 2.81 µM | [16] 1.26 µM

CCC(C)(C)NS(=O)(=O)c1ccccc1
inactive: [1] > 100 µM | [2] > 100 µM | [3] > 100 µM | [4] > 100 µM | [5] > 100 µM | [6] > 100 µM | [7] > 100 µM | [8] > 100 µM | [9] > 100 µM | [10] > 100 µM | [11] > 100 µM | [12] > 100 µM | [13] > 100 µM | [15] > 100 µM | [16] > 100 µM

COC(=O)CCC1=C(CC(=O)OC)C(C)(OC)N/C1=N/C(=O)OCc1ccccc1 (centres undefined)
inactive: [1] > 100 µM | [2] > 100 µM | [3] > 100 µM | [4] > 100 µM | [5] > 100 µM | [6] > 100 µM | [7] > 100 µM | [8] > 100 µM | [9] > 100 µM | [17] > 100 µM | [10] > 100 µM | [11] > 100 µM | [12] > 100 µM | [13] > 100 µM | [14] > 100 µM | [18] > 100 µM | [15] > 100 µM | [16] > 100 µM

Clc1cc(Cc2cc(Cl)c(Cl)c3c2OCOC3)c2c(c1Cl)COCO2
inactive: [1] 43.2 µM | [2] 36.8 µM | [3] 49.1 µM | [4] 28.4 µM | [5] > 100 µM | [6] 43.8 µM | [7] 34.6 µM | [8] > 100 µM | [9] > 100 µM | [10] > 100 µM | [11] > 100 µM | [12] 43.9 µM | [13] > 100 µM | [14] 70 µM | [15] 17.8 µM | [16] 31.7 µM

CC(=O)OC1CC2C(C)(C)C(=O)C=C[C@]2(C)C2CCC3(C)C(c4ccoc4)C(=O)[C@H]4O[C@]43[C@]12C (some centres undefined)
inactive: [1] 17.7 µM | [2] 19.4 µM | [3] 18 µM | [4] 20.3 µM | [5] 28.5 µM | [6] 17.4 µM | [7] 18.7 µM | [8] 15.5 µM | [11] 21.5 µM | [12] 15.6 µM | [13] 26.7 µM | [14] > 100 µM | [15] 20 µM | [16] 19.1 µM
